Source: patent publication US20230348475A1, “IMIDAZOPYRIDAZINE AND IMIDAZOPYRAZINE COMPOUNDS AS INHIBITORS OF CDK7” (THE TRANSLATIONAL GENOMICS RESEARCH INSTITUTE, priority 2020, published 2023)
Where a name gives a salt, the structure may show the parent alone. Read-outs that look alike come from different tables or passages of the source.

Assays:
[1] = tested on: MDA-MB-231 breast cancer cell line; experiment: Cell viability assay (Cell Titer Glo), MDA-MB-231; format: cell-based; settings: Homo sapiens, MDA-MB-231, 72 hour incubation
Procedure: (§1) Materials: • Cell Lines (Treated according to ATCC guidelines) • Cell Titer Glo (Promega Cat #G7572) • DMSO • 96-well White Tissue Culture Treated Plates (Perkin Elmer Cat #60005680)
(§2) Cells were seeded in a white 96-well tissue culture treated plate at a density of 1500 cells in 90 μL of media per well and allowed to settle overnight. A ten point serial dilution of drugs was prepared at 10×concentration in media with the final assay concentrations starting at 30 μM, 10 μM, 3 μM, 1 μM, 0.3 μM . . . 0 μM. A dilution of DMSO was included as a control. The assay was set up by adding 10 μL of the corresponding drug to each well in duplicate, followed by a 72 hour incubation at 37° C., 5% CO2. Cell viability was quantified by adding 90 μL of Cell Titer Glo to each well and incubating at room temperature for 10 minutes. The reaction was quantified by measuring luminescence using the Envision Plate Reader. Data was analyzed using Graphpad Prism 7 software.

[2] = tested on: A673 Ewingsarcoma cell line; experiment: Cell viability assay (Cell Titer Glo), A673; format: cell-based; settings: Homo sapiens, A673, Table 7a, 72 hour incubation
Procedure: as §1, §2

CDK7/CycH/MAT1 = CDK7/CycH/MAT1 (Homo sapiens, UniProt P50613); experiment: Kinase Glo (ADP-Glo) biochemical assay, CDK7; settings: CDK7/CycH/MAT1 40 ng, ATP 1 μM, 60 minutes at RT, luminescence
Outline: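 Enzyme (40 ng), RB-CTF peptide substrate (200 ng or 400 ng) and 1 μM ATP reacted in HEPES pH 7.5 buffer with MgCl2, MnCl2, DTT and Na3VO4 for 60 min at RT. Ten-point compound dilutions were tested from 30 μM final. ADP formed was read by ADP-Glo luminescence.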

[3] = tested on: A2780 ovarian cancer cell line; experiment: Cell viability assay (Cell Titer Glo), A2780; format: cell-based; settings: Homo sapiens, A2780, Table 7a, 72 hour incubation
Procedure: as §1, §2

[4] = tested on: MiaPaCa2 pancreatic cancer cell line; experiment: Cell viability assay (Cell Titer Glo), MiaPaCa2; format: cell-based; settings: Homo sapiens, MIA PaCa-2, 72 hour incubation
Procedure: as §1, §2

[5] = tested on: Kasumi1 leukemia cancer cell line; experiment: Cell viability assay (Cell Titer Glo), Kasumi1; format: cell-based; settings: Homo sapiens, Kasumi 1, Table 7a, 72 hour incubation
Procedure: as §1, §2

[6] = tested on: HPAC pancreatic cancer cell line; experiment: Cell viability assay (Cell Titer Glo), HPAC; format: cell-based; settings: Homo sapiens, HPAC, 72 hour incubation
Procedure: as §1, §2

MDA-MB436 cells = experiment: Cell viability assay (Cell Titer Glo), MDA-MB436; format: cell-based; settings: Homo sapiens, MDA-MB-436; Table 7b; 72 hour incubation
Procedure: as §2, with “Cell Viability Assay Materials: • Cell Lines (Treated according to ATCC guidelines) • Cell Titer Glo (Promega Cat #G7572) • DMSO • 96-well White Tissue Culture Treated Plates (Perkin Elmer Cat #60005680) Method: Cells” for “Cells”, “μ[…]” for “μM, 10 μM, 3 μM, 1 μM, 0.3 μM . . . 0 μM. A”

MDA-MB468 cells = experiment: Cell viability assay (Cell Titer Glo), MDA-MB468; format: cell-based; settings: Homo sapiens, MDA-MB-468; Table 7b; 72 hour incubation
Procedure: as §2, with “Cell Viability Assay Materials: • Cell Lines (Treated according to ATCC guidelines) • Cell Titer Glo (Promega Cat #G7572) • DMSO • 96-well White Tissue Culture Treated Plates (Perkin Elmer Cat #60005680) Method: Cells” for “Cells”, “μ[…]” for “μM, 10 μM, 3 μM, 1 μM, 0.3 μM . . . 0 μM. A”

[7] = Table 7a, breast cancer cell line
[8] = Table 7a, pancreatic cancer cell line

CDK7/CycH/MAT1, sequence (P50613 whole entry): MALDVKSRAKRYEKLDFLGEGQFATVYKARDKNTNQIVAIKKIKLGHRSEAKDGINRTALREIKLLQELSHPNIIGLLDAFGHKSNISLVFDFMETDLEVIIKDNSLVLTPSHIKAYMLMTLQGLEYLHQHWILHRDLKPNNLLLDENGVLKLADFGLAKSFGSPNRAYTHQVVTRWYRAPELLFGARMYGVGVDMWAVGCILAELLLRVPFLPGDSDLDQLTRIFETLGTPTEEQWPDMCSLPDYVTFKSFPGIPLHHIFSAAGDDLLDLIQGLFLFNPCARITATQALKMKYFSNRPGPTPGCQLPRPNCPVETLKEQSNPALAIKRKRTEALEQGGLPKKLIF
CDK7/CycH/MAT1, sequence (P51946 whole entry partner): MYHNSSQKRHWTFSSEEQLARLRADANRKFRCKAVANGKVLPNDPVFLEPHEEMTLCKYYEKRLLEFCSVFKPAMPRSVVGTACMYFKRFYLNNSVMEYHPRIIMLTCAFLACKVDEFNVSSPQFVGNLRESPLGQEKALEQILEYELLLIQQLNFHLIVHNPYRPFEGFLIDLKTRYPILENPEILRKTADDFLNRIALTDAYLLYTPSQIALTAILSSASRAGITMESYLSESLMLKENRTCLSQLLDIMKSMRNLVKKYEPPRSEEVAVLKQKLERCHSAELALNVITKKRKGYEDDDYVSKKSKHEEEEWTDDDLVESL
CDK7/CycH/MAT1, sequence (P51948 whole entry partner): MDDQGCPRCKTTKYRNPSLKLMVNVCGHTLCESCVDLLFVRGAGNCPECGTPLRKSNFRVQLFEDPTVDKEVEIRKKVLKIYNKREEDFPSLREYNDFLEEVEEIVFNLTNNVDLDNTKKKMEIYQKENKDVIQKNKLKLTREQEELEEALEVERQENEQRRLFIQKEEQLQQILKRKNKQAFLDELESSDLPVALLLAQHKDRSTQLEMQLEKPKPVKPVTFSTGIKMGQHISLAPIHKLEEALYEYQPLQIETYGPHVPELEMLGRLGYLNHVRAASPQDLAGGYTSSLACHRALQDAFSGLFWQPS

| IC50 [1, 7] | IC50 [2] | IC50 (CDK7/CycH/MAT1) | IC50 [3] | IC50 [4, 8] | IC50 [5] | IC50 [6, 8] | IC50 ([1]; Table 7b, read-out: IC50 MDA-MB231) | IC50 (MDA-MB436 cells) | IC50 (MDA-MB468 cells) | IC50 ([4]; Table 7b, read-out: IC50 MIA PaCa2) | IC50 ([6]; Table 7b) | SMILES |
| --- | --- | --- | --- | --- | --- | --- | --- | --- | --- | --- | --- | --- |
| 1 to 5 µM | < 1 µM | < 100 nM | < 1 µM | < 1 µM | 1 to 5 µM | < 1 µM |  |  |  |  |  | COc1ccccc1CNc1cc(SC2CCNCC2)nn2c(C(C)C)cnc12 [Compound 35, hydrochloride] |
| 1 to 5 µM | 1 to 5 µM | < 100 nM | < 1 µM | 1 to 5 µM | 1 to 5 µM | 1 to 5 µM |  |  |  |  |  | COc1ccccc1CNc1cc(SC2CCCNC2)nn2c(C(C)C)cnc12 (centres unmarked) [Compound 36, hydrochloride] |
| 1 to 5 µM | 1 to 5 µM | < 100 nM | 1 to 5 µM | 1 to 5 µM | 1 to 5 µM | 1 to 5 µM |  |  |  |  |  | CC(C)c1cnc2c(NCc3ccccc3OC(F)(F)F)cc(SC3CCCNC3)nn12 (centres unmarked) [Compound 37, 3-isopropyl-6-(piperidin-3-ylthio)-N-(2-(trifluoromethoxy)benzyl)imidazo[1,2-b]pyridazin-8-amine] |
| 1 to 5 µM | 1 to 5 µM | < 100 nM | 1 to 5 µM | 1 to 5 µM | 1 to 5 µM | 1 to 5 µM |  |  |  |  |  | CC(C)c1cnc2c(Nc3cccc(F)c3)cc(O[C@H]3CCCNC3)nn12 [Compound 39, (S)-N-(3-fluorophenyl)-3-isopropyl-6-(piperidin-3-yloxy)imidazo[1,2-b]pyridazin-8-amine hydrochloride] |
| 1 to 5 µM | 1 to 5 µM | < 100 nM | 1 to 5 µM | 1 to 5 µM | > 5 µM | 1 to 5 µM |  |  |  |  |  | COc1ccccc1CNc1cc(NC2CCNCC2)nn2c(C(C)C)cnc12 [Compound 40, 3-isopropyl-N8-(2-methoxybenzyl)-N6-(piperidin-4-yl)imidazo[1,2-b]pyridazine-6,8-diamine hydrochloride] |
| 1 to 5 µM | 1 to 5 µM | < 100 nM | 1 to 5 µM | 1 to 5 µM | 1 to 5 µM | 1 to 5 µM |  |  |  |  |  | CC(C)c1cnc2c(NCc3ccccc3OC(F)(F)F)cc(OC3CCNCC3)nn12 [Compound 43, 3-isopropyl-6-(piperidin-4-yloxy)-N-(2-(trifluoromethoxy)benzyl)imidazo[1,2-b]pyridazin-8-amine hydrochloride] |
| < 1 µM | < 1 µM | < 100 nM | < 1 µM | < 1 µM | < 1 µM | < 1 µM |  |  |  |  |  | CC(C)c1cnc2c(Nc3cccc(F)c3)cc(SC3CCNCC3)nn12 [Compound 44, N-(3-fluorophenyl)-3-isopropyl-6-(piperidin-4-ylthio)imidazo[1,2-b]pyridazin-8-amine hydrochloride] |
| 1 to 5 µM | 1 to 5 µM | < 100 nM | 1 to 5 µM | < 1 µM | 1 to 5 µM | 1 to 5 µM |  |  |  |  |  | CC(C)c1cnc2c(Nc3cccc(F)c3)cc(NC3CCNCC3)nn12 [Compound 45, N8-(3-fluorophenyl)-3-isopropyl-N6-(piperidin-4-yl)imidazo[1,2-b]pyridazine-6,8-diamine hydrochloride] |
| 1 to 5 µM | 1 to 5 µM | < 100 nM | 1 to 5 µM | 1 to 5 µM | > 5 µM | 1 to 5 µM |  |  |  |  |  | CC(C)c1cnc2c(NCc3ccccc3OC(F)(F)F)cc(NC[C@@H]3CNCCO3)nn12 [Compound 46, (S)-3-isopropyl-N6-(morpholin-2-ylmethyl)-N8-(2-(trifluoromethoxy)benzyl)imidazo[1,2-b]pyridazine-6,8-diamine hydrochloride] |
| 1 to 5 µM | 1 to 5 µM | < 100 nM | 1 to 5 µM | 1 to 5 µM | > 5 µM | 1 to 5 µM |  |  |  |  |  | CC(C)c1cnc2c(NCc3ccccc3OC(F)(F)F)cc(NC[C@H]3CNCCO3)nn12 [Compound 48, (R)-3-isopropyl-N6-(morpholin-2-ylmethyl)-N8-(2-(trifluoromethoxy)benzyl)imidazo[1,2-b]pyridazine-6,8-diamine hydrochloride] |
|  |  | < 100 nM |  |  |  |  | 1 to 5 µM | 1 to 5 µM | 1 to 5 µM | < 1 µM | 1 to 5 µM | Fc1cccc(Nc2cc(O[C@H]3CCCNC3)nn3c(C4CC4)cnc23)c1 [Compound I-1] |

| SMILES | IC50 [1, 7] | IC50 [2] | IC50 (CDK7/CycH/MAT1) | IC50 [3] | IC50 [4, 8] | IC50 [5] | IC50 [6, 8] | IC50 ([1]; Table 7b, read-out: IC50 MDA-MB231) | IC50 (MDA-MB436 cells) | IC50 (MDA-MB468 cells) | IC50 ([4]; Table 7b, read-out: IC50 MIA PaCa2) | IC50 ([6]; Table 7b) |
| --- | --- | --- | --- | --- | --- | --- | --- | --- | --- | --- | --- | --- |
| CC(C)c1cnc2c(NCc3ccccc3OC(F)(F)F)cc(NC3CCNCC3)nn12 [Compound 38, hydrochloride] | 1 to 5 µM | 1 to 5 µM | < 100 nM | 1 to 5 µM | 1 to 5 µM | 1 to 5 µM | 1 to 5 µM |  |  |  |  |  |
